How the values were obtained:
[1] = tested on: Rab10-pThr73; test: Western Blot, HEK293 cells co-expressing HA-Rab10 and LRRK2 variants; assay type: cell-based, human; conditions: 100 nM; HEK293 co-overexpressing HA-Rab10 and LRRK2 WT, G2019S or R1441C
Protocol: Plasmids encoding various LRRK2 and Rab GTPase protein variants were transiently expressed in HEK293 cells using Lipofectamine®2000 according to the manufacturer’s instructions (Thermo Fisher Scientific, US).
HEK293 cells were plated at a density of 1 × 10^6 cells/well in 6-well plates pre-coated for 1 hr at 37 °C with poly-L-lysin. Subsequent to the transient transfection HEK293 cells were harvested using 1 mL cold Phosphate Buffered Saline (PBS) buffer (Invitrogen, California, US) and subsequently centrifuged at 800 g for 2 minutes. Cell pellets were resuspended and solubilized in 100 µL lysis buffer (50 mM Tris hydrochloride, 1 mM magnesium chloride, 1% Triton, 0.1% sodium dodecyl sulfate (SDS), pH 8.0) on ice for 20 minutes and then centrifuged at 20,000 g for 30 minutes at 4 °C. The solubilized crude cell lysate was size mobility separated by SDS-polyacrylamide gel electrophoresis (SDS-PAGE). LRRK2 was separated on a 3–8% Tris-Acetate gel (NuPAGE® Tris-Acetate Mini Gels, Life Technologies, Paisley, UK) and Rab10 and Rab12 were separated using a NuPAGE® Novex 4–12% Bis-Tris Gel (Invitrogen, California, US). An amount of 10 µg total protein was loaded in each well. Proteins were transferred to immobilon-FL PVDF membranes (Millipore, Billerica, US).

[2] = tested on: T1, BLK; test: KiNativ profiling in human PBMCs; assay type: binding; conditions: Activation Loop
T1 construct: purchased ActivX Technologies (KiNativ)

[3] = tested on: T2, CASK; test: KiNativ profiling in human PBMCs; assay type: binding; conditions: Lys1
T2 construct: purchased ActivX Technologies (KiNativ)

[4] = tested on: T3, CDK9; test: KiNativ profiling in human PBMCs; assay type: binding; conditions: Lys2
T3 construct: purchased ActivX Technologies (KiNativ)

[5] = tested on: T4, CK1a; test: KiNativ profiling in human PBMCs; assay type: binding; conditions: Lys2
T4 construct: purchased ActivX Technologies (KiNativ)

[6] = tested on: T5, COT; test: KiNativ profiling in human PBMCs; assay type: binding; conditions: ATP Loop
T5 construct: purchased ActivX Technologies (KiNativ)

[7] = tested on: T6, FAK; test: KiNativ profiling in human PBMCs; assay type: binding; conditions: Activation Loop
T6 construct: purchased ActivX Technologies (KiNativ)

[8] = tested on: T7, FYN; test: KiNativ profiling in human PBMCs; assay type: binding; conditions: Lys1
T7 construct: purchased ActivX Technologies (KiNativ)

[9] = tested on: T8, GAK; test: KiNativ profiling in human PBMCs; assay type: binding; conditions: Lys2
T8 construct: purchased ActivX Technologies (KiNativ)

[10] = tested on: T9, ITPK1; test: KiNativ profiling in human PBMCs; assay type: binding; conditions: ATP
T9 construct: purchased ActivX Technologies (KiNativ)

[11] = tested on: T10, MAP2K1; test: KiNativ profiling in human PBMCs; assay type: binding; conditions: Lys2
T10 construct: purchased ActivX Technologies (KiNativ)

[12] = tested on: T11, MARK4; test: KiNativ profiling in human PBMCs; assay type: binding; conditions: Lys2
T11 construct: purchased ActivX Technologies (KiNativ)

[13] = tested on: T12, MAST4; test: KiNativ profiling in human PBMCs; assay type: binding; conditions: Lys2
T12 construct: purchased ActivX Technologies (KiNativ)

[14] = tested on: T13, p38b; test: KiNativ profiling in human PBMCs; assay type: binding; conditions: Protein Kinase Domain
T13 construct: purchased ActivX Technologies (KiNativ)

[15] = tested on: PCTAIRE2, PCTAIRE3; test: KiNativ profiling in human PBMCs; assay type: binding; conditions: Lys1
[16] = tested on: T14, PEK; test: KiNativ profiling in human PBMCs; assay type: binding; conditions: Lys2
T14 construct: purchased ActivX Technologies (KiNativ)

[17] = tested on: T15, PHKg2; test: KiNativ profiling in human PBMCs; assay type: binding; conditions: Lys1
T15 construct: purchased ActivX Technologies (KiNativ)

[18] = tested on: PI4KA, PI4KAP2; test: KiNativ profiling in human PBMCs; assay type: binding; conditions: ATP
[19] = tested on: T16, PIP4K2B; test: KiNativ profiling in human PBMCs; assay type: binding; conditions: ATP
T16 construct: purchased ActivX Technologies (KiNativ)

[20] = tested on: T17, PKCh; test: KiNativ profiling in human PBMCs; assay type: binding; conditions: Lys1
T17 construct: purchased ActivX Technologies (KiNativ)

[21] = tested on: PKD1, PKD2; test: KiNativ profiling in human PBMCs; assay type: binding; conditions: Lys2
[22] = tested on: T18, PKD3; test: KiNativ profiling in human PBMCs; assay type: binding
T18 construct: purchased ActivX Technologies (KiNativ)

[23] = tested on: T19, PKN2; test: KiNativ profiling in human PBMCs; assay type: binding; conditions: Lys2
T19 construct: purchased ActivX Technologies (KiNativ)

[24] = tested on: ROCK1, ROCK2; test: KiNativ profiling in human PBMCs; assay type: binding; conditions: Lys2
[25] = tested on: T20, SRC; test: KiNativ profiling in human PBMCs; assay type: binding; conditions: Lys1
T20 construct: purchased ActivX Technologies (KiNativ)

[26] = tested on: T21, TEC; test: KiNativ profiling in human PBMCs; assay type: binding; conditions: Activation Loop
T21 construct: purchased ActivX Technologies (KiNativ)

[27] = tested on: T22, TGFbR2; test: KiNativ profiling in human PBMCs; assay type: binding; conditions: Lys2
T22 construct: purchased ActivX Technologies (KiNativ)

[28] = tested on: T23, VRK2; test: KiNativ profiling in human PBMCs; assay type: binding; conditions: Lys2
T23 construct: purchased ActivX Technologies (KiNativ)

[29] = tested on: T24, ZC2/TNIK; test: KiNativ profiling in human PBMCs; assay type: binding; conditions: Lys1
T24 construct: purchased ActivX Technologies (KiNativ)

Q: For `Cc1cccc(-c2cc(Nc3ccn(C)n3)nc3[nH]cc(C#N)c23)c1` [Lu AF58786], which “phosphorylation of Rab10 (pThr73)” value [1] is on record?
A: The value was “no phosphorylation”.

Q: With `Cn1cc(-c2c[nH]c3ncnc(N4CCOCC4)c23)cc1C#N` [PFE-360] as the compound, how does the “% Inhibition” value ([2]; 0.1µM) read?
A: Its value is 12.4%.

Q: And the “% Inhibition” value ([2]; 1µM)?
A: The value was -11.6%.

Q: And the “% Inhibition” value ([3]; 0.1µM)?
A: Its value is 4.6%.

Q: What about the “% Inhibition” value ([3]; 1µM) of the same compound?
A: The value was 8.6%.

Q: What about the “% Inhibition” value ([4]; 0.1µM) of the same compound?
A: Its value is -8.9%.

Q: What about the “% Inhibition” value ([4]; 1µM) of the same compound?
A: The value was -4.4%.

Q: What about the “% Inhibition” value ([5]; 0.1µM) of the same compound?
A: Its value is -17.4%.

Q: And the “% Inhibition” value ([5]; 1µM)?
A: Its value is 4.6%.

Q: And the “% Inhibition” value ([6]; 0.1µM)?
A: The value was 26.3%.

Q: What about the “% Inhibition” value ([6]; 1µM) of the same compound?
A: The value was 7.7%.

Q: What about the “% Inhibition” value ([7]; 0.1µM) of the same compound?
A: The value was 2.6%.

Q: And the “% Inhibition” value ([7]; 1µM)?
A: Its value is 26.4%.

Q: What about the “% Inhibition” value ([8]; 0.1µM) of the same compound?
A: Its value is -23.9%.

Q: And the “% Inhibition” value ([8]; 1µM)?
A: The value was -19%.

Q: What about the “% Inhibition” value ([9]; 0.1µM) of the same compound?
A: Its value is -12.4%.

Q: And the “% Inhibition” value ([9]; 1µM)?
A: The value was -36.6%.

Q: What about the “% Inhibition” value ([10]; 0.1µM) of the same compound?
A: Its value is -34%.

Q: And the “% Inhibition” value ([10]; 1µM)?
A: Its value is -34.7%.

Q: And the “% Inhibition” value ([11]; 0.1µM)?
A: The value was -25.9%.

Q: And the “% Inhibition” value ([11]; 1µM)?
A: Its value is 6.5%.

Q: And the “% Inhibition” value ([12]; 0.1µM)?
A: Its value is 14.8%.

Q: And the “% Inhibition” value ([12]; 1µM)?
A: Its value is -6.1%.

Q: What about the “% Inhibition” value ([13]; 0.1µM) of the same compound?
A: The value was -5.7%.

Q: And the “% Inhibition” value ([13]; 1µM)?
A: Its value is -21.4%.

Q: What about the “% Inhibition” value ([14]; 0.1µM) of the same compound?
A: The value was 3.5%.

Q: And the “% Inhibition” value ([14]; 1µM)?
A: Its value is 7%.

Q: What about the “% Inhibition” value ([15]; 0.1µM) of the same compound?
A: The value was -34%.

Q: And the “% Inhibition” value ([15]; 1µM)?
A: Its value is 11.6%.

Q: What about the “% Inhibition” value ([16]; 0.1µM) of the same compound?
A: The value was 10.6%.

Q: And the “% Inhibition” value ([16]; 1µM)?
A: Its value is 17.3%.

Q: What about the “% Inhibition” value ([17]; 0.1µM) of the same compound?
A: The value was -21.5%.

Q: What about the “% Inhibition” value ([17]; 1µM) of the same compound?
A: Its value is -15.8%.

Q: And the “% Inhibition” value ([18]; 0.1µM)?
A: Its value is -6%.

Q: And the “% Inhibition” value ([18]; 1µM)?
A: The value was 4.4%.

Q: And the “% Inhibition” value ([19]; 0.1µM)?
A: Its value is 6.9%.

Q: What about the “% Inhibition” value ([19]; 1µM) of the same compound?
A: Its value is 22.6%.

Q: And the “% Inhibition” value ([20]; 0.1µM)?
A: Its value is -10.3%.

Q: What about the “% Inhibition” value ([20]; 1µM) of the same compound?
A: The value was -11%.

Q: What about the “% Inhibition” value ([21]; 0.1µM) of the same compound?
A: The value was 13.1%.

Q: What about the “% Inhibition” value ([21]; 1µM) of the same compound?
A: Its value is -5.9%.

Q: And the “% Inhibition” value ([22]; 0.1µM, Lys1)?
A: Its value is 1.2%.

Q: What about the “% Inhibition” value ([22]; 0.1µM, Lys2) of the same compound?
A: Its value is 17.6%.

Q: And the “% Inhibition” value ([22]; 1µM, Lys1)?
A: Its value is -10.7%.

Q: And the “% Inhibition” value ([22]; 1µM, Lys2)?
A: The value was -1.1%.

Q: What about the “% Inhibition” value ([23]; 0.1µM) of the same compound?
A: The value was -3%.

Q: What about the “% Inhibition” value ([23]; 1µM) of the same compound?
A: Its value is -20%.

Q: And the “% Inhibition” value ([24]; 0.1µM)?
A: Its value is -31.8%.

Q: And the “% Inhibition” value ([24]; 1µM)?
A: The value was -10.7%.

Q: What about the “% Inhibition” value ([25]; 0.1µM) of the same compound?
A: Its value is -31.8%.

Q: And the “% Inhibition” value ([25]; 1µM)?
A: Its value is -0.3%.

Q: What about the “% Inhibition” value ([26]; 0.1µM) of the same compound?
A: Its value is -3.8%.

Q: What about the “% Inhibition” value ([26]; 1µM) of the same compound?
A: Its value is 9.2%.

Q: What about the “% Inhibition” value ([27]; 0.1µM) of the same compound?
A: The value was -5.4%.

Q: What about the “% Inhibition” value ([27]; 1µM) of the same compound?
A: The value was -16.3%.

Q: And the “% Inhibition” value ([28]; 0.1µM)?
A: Its value is -2.9%.

Q: What about the “% Inhibition” value ([28]; 1µM) of the same compound?
A: The value was 8.4%.

Q: And the “% Inhibition” value ([29]; 0.1µM)?
A: Its value is -31.6%.

Q: What about the “% Inhibition” value ([29]; 1µM) of the same compound?
A: Its value is 12.3%.

Reference: PMC5578959, “Selective LRRK2 kinase inhibition reduces phosphorylation of endogenous Rab10 and Rab12 in human peripheral mononuclear blood cells” (Scientific Reports, 2017)
